The subject of data set [1] is platelets. To be noted: cited from earlier work.
Data set [2] concerns platelets. Kind of data set: In vitro turbidimetric arachidonic acid induced platelet aggregation in platelet rich plasma. Type of data set: cell-based, human. The source says: (§1) Referring now to the drawings and, more particularly to FIG. 1, two sample aggregometer tracings are shown which help illustrate the methods used by the inventors to analyze turbidimetric data. Aggregometers are well known research tools and the aggregometer used in the experiments discussed below was a Sienco dual chamber platelet aggregometer. A blood sample which is to be analyzed is drawn from volunteer donors into a 1/8 volume of acid-citrate-dextrose (an anticoagulant used to keep platelets from aggregation during preparative stages). For the in vitro experiments discussed below, the volunteer donors had not taken any medication for ten days prior to submitting the blood sample. The blood is then centrifuged at low speed to sediment red and white blood cells, leaving a fraction enriched in platelets called platelet-rich plasma (PRP). The platelet count was determined electronically using a Coulter counter The final concentration of platelets for a test sample was adjusted to 250,000 platelets/μL fluid by the addition of platelet-poor plasma.
(§2) The aggregometer acts essentially like a spectrophotometer to measure the turbidity of the platelet suspension as a function of the change in light transmission recorded over time. Prior to making turbidimetric measurements, the test samples were heated to 37° C. (body temperature) and stirred at a constant rate. Inhibitors and/or agonists are added to the test sample in very small quantities so as to minimize the dilutional effect. An important object of the present invention was showing that DHEA and DHEA-S are inhibitors of platelet aggregation. Arachidonic acid, available from Biodata Corp of Hatboro, Pennsylvania, is a well known agonist of platelets (i.e., the addition of arachidonic acid to platelets causes aggregation). In the experiments, DHEA and DHEA-S were added to the test sample prior to adding the arachidonic acid so that the platelets could be mixed with the inhibitor before any aggregation initiation caused by the arachidonic acid agonist occurred. Typically, 0.2-0.4 mM arachidonic acid was used to start platelet aggregation.
The aggregometer was calibrated such that the test samples, which contained 250,000 platelets/μl fluid, allowed 0% light transmission while Platelet Poor Plasma, which is essentially devoid of platelets, allowed 100% light transmission. […] The time to the nadir in the aggregometer tracing is called the "LAG" time. After the LAG time has passed, the platelets undergo a rapid phase of aggregation.
The overall rate of aggregation is determined in part by the LAG time and in part by the rate of the rapid aggregation phase. While the LAG time can easily be determined from the turbidimetric spectra, the rate of rapid aggregation phase is technically difficult to measure. […] Therefore, the experiments discussed below have primarily utilized the T1/2MAX measurement to quantitatively analyze the affect of DHEA and DHEA-S as platelet aggregation inhibitors.
DHEA-S is available from the Sigma Chemical Company in powder form. In the in vitro experiments, blood samples were taken from several young healthy donors taking no medications. Platelet rich plasma was prepared as described above for each test sample and the concentration of platelets in the test samples was adjusted to 250,000 platelets/μl fluid. Aggregation of the platelets in the test samples was initiated with 0.2 to 0.4 […] of arachidonic acid (there was a variability in the amount of arachidonic acid used among donors; however, the amount used was near the minimum that would consistently initiate aggregation). In all aggregation experiments 0.3 cc of platelet rich plasma was used and the test sample volume placed in the aggregometer ranged between 10 μl to 30 μl.
In the first in vitro experiment, different concentrations of DHEA-S were added to test samples and the rate of aggregation was monitored after the addition of arachidonic acid. […]

A short description of data set [3]: Serum DHEA and DHEA-S levels by radio-immunoassay (RIA), oral DHEA in normal male volunteers. The conditions noted are these: human, 300 mg/day, DHEA group, 300 mg per day orally (100 mg three times a day), second week, read-out: mean serum DHEA level. Type of data set: in vivo. The protocol: In vivo experimentation has been conducted with DHEA using a test group of ten male human being subjects. The in vivo experimentation comprised a double blind placebo controlled trial where ten normal male volunteers whose ages ranged between 22 and 37 years old were randomly divided into two five membered groups where the average age for each group was 25 years. In the in vivo experiment, the DHEA group received 300 mg of DHEA per day in the form of 100 mg capsules taken orally three times a day. The placebo group took placebo capsules which looked identical to the capsules containing DHEA three times a day. The DHEA and placebo capsules were prepared by the investigational pharmacy at the Medical College of Virginia and the code identifying which patients took DHEA and which took placebo was maintained by the pharmacy until the study was completed such that neither the patients nor the investigators were aware of who was taking DHEA or placebo. Each of the participants in the trial were told not to alter their lifestyles for the duration of the study and at the conclusion of the experiment each participant said that they had not done so. […]
Serum DHEA and DHEA-S levels for the patients was determined before the experiment began and at several later times during the experiment. […]

Data set [4] has as its system Thromboxane A2 (TxA2) synthesis, measured as Thromboxane B2 (TxB2). Kind of data set: Thromboxane production (TxB2 RIA) in platelet rich plasma after arachidonic acid. To be noted: for TxB2 produced: approximately three minutes incubation. The format is cell-based, human. The source says:
As discussed above, activation of platelets by arachidonic acid typically results in the generation of Thromboxane A2 (TxA2) The extent of TxA2 generated can be measured by radioimmunoassay (RIA) of its stable breakdown product Thromboxane B2 (TxB2) (see, JW Aiken, "Arachidonic Acid Metabolism and the Cardiovascular System" in Platelets and Prostaglandins in Cardiovascular Disease, J Mehta, P Mehta eds. Futura Publishing Co., Mt. Kisco, NY 1981). […] The platelet aggregation reaction was terminated at maximal aggregation or at four minutes, which ever occurred […], by the addition of 10 μM Indomethacin and 5.0 mM ethylenediaminetetraacetic acid (EDTA). Indomethacin and EDTA are commercially available reagents and were obtained from the Sigma Chemical Company. After adding the Indomethacin and EDTA reagents, the cuvettes containing the test sample were immediately placed on ice to cool. The test samples were then spun at a high speed in an Epindorf, Model 5415 micro-centrifuge, available from Brinkman Instruments, to sediment the platelets. Afterwards, plasma was removed from each sample. The TXB2 content was then assayed using commercial RIA kits available from Advanced Magnetics, Inc. of Massachussetts.

In data set [5] the test system is oxidant injury in isolated rabbit lungs. The conditions noted are these: cited from earlier work.
Data set [6] relates to blood platelets. Kind of data set: Arachidonic acid induced platelet aggregation (turbidimetric) in volunteers taking DHEA. The format is in vivo, human.
Description: as §1, §2
The aggregometer was calibrated such that the test samples, which contained 250,000 platelets/μl fluid, allowed 0% light transmission while Platelet Poor Plasma, which is essentially devoid of platelets, allowed 100% light transmission. […]
The overall rate of aggregation is determined in part by the LAG time and in part by the rate of the rapid aggregation phase. While the LAG time can easily be determined from the turbidimetric spectra, the rate of rapid aggregation phase is technically difficult to measure. […] Therefore, the experiments discussed below have primarily utilized the T1/2MAX measurement to quantitatively analyze the affect of DHEA and DHEA-S as platelet aggregation inhibitors. […]

For data set [7] the following is noted: human patients; cited from earlier work.
Data set [8] has as its system atherosclerotic plaque. To be noted: 2% cholesterol diet, balloon abrasion, 0.5% DHEA, cited from earlier work.
Data set [9] relates to aortic fatty streaks. The conditions noted are these: 0.5% cholesterol and 0.5% DHEA diet; two months; cited from earlier work.
The subject of data set [10] is intracellular sulfatases. The conditions noted are these: through the action of intracellular sulfatases; cited from earlier work.
For data set [11], the system named is glucose-6-phosphate dehydrogenase. The conditions noted are these: cited from earlier work.
The test system of data set [12] is cardiovascular disease mortality. The conditions noted are these: increase in (endogenous) DHEA-S level of 100 μg/dL; adjusted for other risk factors; p <0.05; cited from earlier work.
Data set [13] deals with myocardial infarction. To be noted: large clinical studies; cited from earlier work.
The subject of data set [14] is platelets. To be noted: cited from earlier work. The source holds these as a separate data set.

The source of these data is patent US5110810A, “Method of using dehydroepiandrosterone and dehydroepiandrosterone-sulfate as inhibitors of platelet aggregation” (Virginia Commonwealth University, priority 1991, dated 1992).

Read-outs that look alike come from different tables or passages of the source.

In the case of `O=[N+]([O-])c1cc(Cl)cc([N+](=O)[O-])c1` [CDNB, 1-chloro-3,5-dinitrobenzene], in data set [1], the “GSH content of platelets” value is “chemically depletes GSH”, the “HMPS pathway stimulation by GSH-depleted platelets” value is listed as “do not stimulate the HMPS pathway”, the “cytoskeletal protein polymerization of GSH-depleted platelets” value was “faster cytoskeletal protein oxidative polymerization but reversible aggregation” and the “sensitivity of GSH-depleted platelets to oxidants” value is recorded as “more sensitive to oxidants”. Moreover, the “aggregation of GSH-depleted platelets” value in [1] (higher inducer concentrations) is “aggregate normally”. For the same molecule, the “aggregation of GSH-depleted platelets” value in [1] (low inducer concentrations, depending on the inducer) is given as “increased or depressed aggregation”.

On to `C[C@]12CC[C@H](O)CC1=CC[C@@H]1[C@@H]2CC[C@]2(C)C(=O)CC[C@@H]12` [DHEA, dehydroepiandrosterone], for which the “platelet aggregation on pre-incubation” value in data set [2] (3.3 μM, pre-incubation 0 to 5.0 minutes (FIG. 6)) is “prolong and eventually inhibit platelet aggregation”. Also, the concentration at 336 h in [3] amounted to 28.7 ± 13.9 ng/mL. The TxB2 produced in [4] (3.3 μM DHEA) was 46.0 ± 4.0 pg/mL. In data set [4] (6.7 μM DHEA), this molecule had a TxB2 produced of 27.3 ± 1.1 pg/mL. In addition, the TxB2 produced in data set [4] (10.0 μM DHEA) was determined as 21.8 ± 1.8 pg/mL. Also, the “TxB2 produced vs concentration” value in data set [4] (increasing concentrations of DHEA (FIG. 7)) was “proportional decline in TxB2 produced”. In addition, the TxA2 synthesis entry in data set [4] (presence of added DHEA (FIG. 7)) was “net inhibition of TxA2 synthesis”. The “thromboxane B2 production” value in [5] is “unchanged”. In data set [5] (platelets pretreated with DHEA), the “lung edema and pulmonary hypertension” value is “augmentation of the lung edema and pulmonary hypertension”. Further, in data set [6] (300 mg DHEA per day orally), the “aggregation response, fifth DHEA patient” value is “no change”; the “arachidonic acid induced platelet aggregation, one of the four responding subjects” value is on record as “completely inhibited”; the “patients who developed a delay in the rate of aggregation or an increase in the minimal concentration of arachidonic acid required to initiate aggregation” value is given as “four of the five patients”. For the same molecule, the “T1/2MAX and LAG curves vs arachidonic acid concentration” value in data set [6] (one DHEA treated patient, second week vs baseline (FIG. 3)) was “shifted to the right and upward”. Moreover, in [7], the HDL cholesterol levels entry is “without affecting HDL cholesterol levels”, the LDL cholesterol levels result is listed as “lower LDL cholesterol levels”, the body fat mass entry is “reduce body fat mass” and the muscle mass entry is reported as “increase muscle mass”. Further, in [7], the “serum apilipoprotein B levels” value is recorded as “lower serum apilipoprotein B levels” and the “tissue sensitivity to insulin” value is reported as “not affect tissue sensitivity to insulin”. For the same molecule, the “individual reduction of plaque size vs serum level of DHEA” value in [8] is reported as “inversely proportional to the serum level of DHEA attained”. The “reduction in plaque size” value in data set [8] (vs rabbits not receiving DHEA) is reported as 50%. Also, in data set [9], the “reduction in fatty streak formation, chemical analysis” value is 30% and the “reduction in fatty streak formation, planimetry of the lesions” value is listed as 40%. Moreover, the “interconversion of DHEA with its sulfate ester” value in data set [10] is recorded as “readily interconvertible”. Besides, the “inhibition of glucose-6-phosphate dehydrogenase” value in data set [11] was “specific inhibitor”.

In the case of `CC12CCC3C(CC=C4CC(OS(=O)(=O)O)CCC43C)C1CCC2=O` (stereo not drawn) [DHEA-S, dehydroepiandrosterone-sulfate], the “T1/2MAX and LAG vs pre-incubation time” value in [2] (3.3 μM DHEA-S (FIG. 5)) is “the greater the increase in T1/2MAX and LAG times”. In addition, in data set [2] (3.3 μM DHEA-S, 0 time pre-incubation (FIG. 5)), the “T1/2MAX and LAG vs baseline” value was “did increase the T1/2MAX and LAG from baseline”. In data set [2] (3.3 μM DHEA-S, 5.0 minutes, in most cases (FIG. 6)), the “aggregation after 5.0 minute pre-incubation” value is given as “complete inhibition of aggregation”. Further, the “time for T1/2MAX and LAG” value in data set [2] (10.0 μM DHEA-S, three minutes incubation) is “not determinable”. Moreover, in [2] (incubated three minutes before arachidonic acid, most test samples), the “platelet aggregation response to increasing DHEA-S concentration” value is given as “dose dependent response”. Also, the “T1/2MAX and LAG times with increasing concentrations” value in [2] (three minutes incubation (FIG. 4)) was “increase with increasing concentrations of DHEA-S”. For the same molecule, the “reduction in mortality from cardiovascular disease” value in [12] is 48%. For the same molecule, in data set [4] (treatment of blood with DHEA-S), the thromboxane production entry is given as “reduce thromboxane production”.

On to `CC(=O)Oc1ccccc1C(=O)O` [aspirin], for which the “incidence of myocardial infarction” value in [13] is reported as “reduce the incidence of myocardial infarction”. Besides, in data set [14], the initial platelet adhesion result was “does not inhibit initial platelet adhesion” and the “platelet's role in atherogenesis” value is “does not appear to have an affect”.
